Reference: patent US6884577B2, “Methods for screening compounds for estrogenic activity” (The Regents of the University of California, priority 1993, dated 2005)

Columns and labels:
[1] = tested on: ER at classical ERE; assay: Reporter genes containing classical EREs (ERE-coll60, ERE-tk) in cells with ER; format: cell-based, human
Experimental: FIGS. 2A-2C show antiestrogen stimulation of expression in an intact AP-1 Site, but not at classical EREs. […] Representations, at left, show the human collagenase promoter (shaded) and the consensus AP-1 site. CAT activities were from cells maintained in the absence of hormone or saturating concentrations of ICI 164,384 (ICI, 1 μM), tamoxifen (5 μM) or estradiol ([…]). CAT activity is normalized to a transfection control with the actin promoter driving expression of βHCG. Single representative experiments are shown, error bars represent standard deviation of triplicate hormone treatments.
All reporter genes described below have been modified by digestion with EcoR I and Ndel to remove a AP-I site in the backbone of pUG. Thus, Coll73 and Coll60 are formerly_Coll73 and_Coll60 (Lopez et al. Mol. Cell. Biol. 13:3042-930 (1993)). Coll73-LUC was constructed by cloning a BamHI/Pvull fragment, that spanned the luciferase transcription unit, from pMG3 into coll73, which had been digested with BamHI and SmaI to remove the CAT transcription unit. EREcoll60 and EREcoll73 was prepared by ligation of a consensus ERE ([…], SEQ ID NO:3), into the HindIII site upstream of coll60 and coll73, respectively. All other reporter genes have been previously described (Webb et al. Mol. Endocrinol. 6:157-16725 (1992): and Lopez et al., supra).
Cells were maintained and transfected as previously described in Webb et al., supra. Hormones were added two hours after plating in the following concentrations, estradiol 100 nM, ICI 164,384 1 μM, tamoxifen 5 μM, to ensure saturation of the response. F9 cells were seeded at 30% confluence upon 1.5 cm dishes and transfected overnight by calcium phosphate coprecipitation with 5 μg reporter gene, 1 μg actin β-HCG, and 1 μg of HEO, 300 ng each of c-jun and c-fos expression vectors. The cells were glycerol shocked and refed in growth medium containing hormone or ethanolic vehicle. In transient transfections, optimal amounts of HEO were employed and were as follows: HeLa (5 μg); NIH3T3 (1 μg); HepG2 (1 μg); SHM (300 ng); SY5Y (300 ng); CEF (100 ng); CV-1 (3 μg); MDA453 (3 μg); CHO (100 ng) and F9 (1 μg).
CAT assays were carried out as described in Webb et al., except that the cells were harvested one to two days after transfection instead of three. CAT activities were defined as the increase in cpm per hour at room temperature (corrected for background) per 100 μl of cell extract, normalized to production of 100 standard units of βHCG, from a co-transfected reporter gene, actin-HCG. Luciferase assays were performed as described by Brasier et al. Methods Enzymol 216:386-97 (1992)) on similar extracts that were used for CAT assays. Light units were defined as the luciferase activity per 100 μl of cell extract per 100 standard units of βHCG. Relative luciferase activities were calculated with respect to the results that were obtained in the absence of ER and hormone, which was set at 1 unit. For the data presented in Table I triplicate points were determined. Standard deviations were less than 20%.
The activity of antiestrogens in the AP-1 pathway was also compared with their activity in the classical pathway. […] A promoter with both an ERE and an AP-1 site (ERE-coll73 FIG. 2C) gave a large estrogen response, but retained some response to antiestrogens. Another control reporter, in which the tk promoter was regulated by a classical ERE (ERE-tk FIG. 2C) was also activated by estrogen, but not by antiestrogens.

[2] = tested on: CHO cells, which lack functioning ER; assay: Negative control: estrogen-responsive reporter constructs in CHO cells which lack functioning ER; format: cell-based; conditions: same estrogen-responsive reporter constructs
From the text: To examine whether the series 4 compounds induce estrogenic activity through the ER, we tested the ability of ICI 164384 to inhibit the series 4 estrogenic activity. […] As a negative control, CHO cells, which lack functioning ER, were transfected with the same estrogen-responsive reporter constructs and treated with 17β-estradiol and the series 4 hydroxystilbenes.

In the case of `C[C@]12CC[C@@H]3c4ccc(O)cc4CC[C@H]3[C@@H]1CC[C@@H]2O` [estradiol, 17β-estradiol], the “estrogen response of EREΔcoll60 (classical ERE substituted for AP1 site)” value ([1]; ERC1 cells) is reported as “restored estrogen response”, the “activation of ERE-tk” value ([1]; HeLa cells, FIG. 2C) is reported as “activated” and the “estrogenic activity in cells lacking functioning ER” value [2] is reported as “no estrogenic activity”.
